Where two headings read alike, the source gives them in different places.

We go through five molecules from patent publication US20060074109A1, “Use of inhibitors of 24-hydroxylase in the treatment of cancer” (Sapphire Therapeutics, Inc., priority 2004, published 2006).

The test system of assay [1] is RARγ mRNA in SK-OV-3 cells. The assay is described as follows: RPA and quantitative RT-PCR of receptor mRNA. In kind it is cell-based, human. Conditions: 24 hour. The source says: (§1) Briefly, ^32P-labelled ([α-^32P]UTP, Amersham Biosciences, Buckinghamshire, UK) RNA-probes were synthesised using in vitro transcription reaction (In vitro transcription reaction kit, Pharmingen, San Diego, Calif.) using two different template sets.
(§2) RPLP0 was used as reference gene.

Assay [2] concerns RARα mRNA in SK-OV-3 cells. The assay is described as follows: RPA and quantitative RT-PCR of receptor mRNA. The class given is cell-based, human. Conditions: 24 hour.
From the text: as §1, §2

Assay [3] has as its system RARγ mRNA in UT-OC-1 cells. The assay is described as follows: RPA and quantitative RT-PCR of receptor mRNA. In kind it is cell-based, human. The note with it: 24 hour.
From the text: as §1, §2

In assay [4] the test system is OVCAR-3 ovarian cancer cells. The assay is described as follows: Cell growth, methylene blue uptake (Experiment VI). The class given is cell-based, human. The note with it: calcitriol alone. The procedure:
(§3) Culture conditions were the same as for Experiment I. Cell growth was measured using uptake of methylene blue (0.5% in 50% ethanol), followed by air drying and release of the dye in 1% sodium N-lauroyl sarcosine in PBS.

Assay [5] deals with DU145 prostate cancer cells. The assay is described as follows: Cell growth, methylene blue uptake (Experiment VI). In kind it is cell-based. The note with it: calcitriol alone, compared with OVCAR-3. The procedure: as §3
Assay [6] relates to CWR22Rv-1 prostate cancer cells. The assay is described as follows: Cell growth, methylene blue uptake (Experiment VI). In kind it is cell-based. Conditions: calcitriol alone, compared with OVCAR-3. The protocol:
as §3

In assay [7] the test system is PC3 prostate cancer cells. The assay is described as follows: Cell growth, methylene blue uptake (Experiment VI). In kind it is cell-based. Conditions: calcitriol alone, compared with OVCAR-3. The protocol: as §3
The next assay concerns OVCAR-3 cells. Put plainly: Cell growth assay, crystal violet, 11 days. In kind it is cell-based, human. The note with it: 11 days. The protocol: (§4) The human ovarian adenocarcinoma cell line, OVCAR-3 (ATCC, Manassas, Va.) was maintained, as recommended by the supplier, in RPMI 1640 medium (Sigma Aldrich, St. Louis, Mo.) supplemented with 10% FBS, 10 μg/ml insulin, 0.25% glucose and antibiotics (100 IU/ml penicillin, 100 μg/ml streptomycin). Human ovarian adenocarcinoma cell lines UT-OC-1, UT-OC-2, UT-OC-3, UT-OC-4, UT-OC-5 (Grenman, S., Engblom, P., Rantanen, V., Klemi, P. and Isola, J., “Cytogenetic Characterization of Five New Ovarian Carcinoma Cell Lines,” Acta Obstet. Gynecol. Scand., 76:83 (1997)) and SK-OV-3 and a human keratinocyte cell line HaCaT were grown in DMEM (Sigma Aldrich) with 10% FBS and antibiotics (100 IU/ml penicillin, 100 μg/ml streptomycin), and monkey kidney COS cells were maintained in DMEM/F12 (Sigma Aldrich) with 5% FBS. All cell lines were kept at 37° C. in a humidified 95% air/5% CO2 incubator.
(§5) When OVCAR-3 cells were on the logarithmic growth phase (70% confluent) the growth assay was started. For cell growth assay, 2,000 cell/200 μl/well were plated on 96-well culture plates. […] Ethanol was used as a vehicle, and it was also included in the control. The medium containing ethanol vehicle and/or hormones were changed to a fresh one every third day. Cell growth samples were taken 0, 1, 3, 5, 7, 9 and 11 days after the treatment.
(§6) Relative cell numbers were quantified as described previously (Kueng W, Silber E, Eppenberger U. Quantification of cells cultured on 96-well plates. Anal. Biochem., 182:16-9 (1989)). Cells were fixed on the bottom of the wells by addition of 10 μl of 11% glutaraldehyde solution in 0.1% phosphate buffer to 100 μl of medium. The plate was shaken 500 cycles/min for 15 min, washed 3 times by submersion in de-ionised water and air-dried. Fixed cells were stained with 0.1% solution of crystal violet dissolved in de-ionised water. After 20 min incubation, excess dye was removed by carefully washing with de-ionised water. The plate was air-dried prior to a bound dye solubilisation in 100 μl of 10% acetic acid. Relative cell number was given as absorbance units by measuring the optical density (590 nm) from each well using Victor 1420 multilabel counter (Wallac, Turku, Finland). Six determinations were used to calculate the mean optical density ±SD in each concentration at each time point. The absorbance value of day 0 (an overnight culture of 2,000 cells/well) was set as 0 by subtracting it from each value obtained from adjacent time-point measurements (days 1-11), and based on these values growth curves were created. Experiments were repeated 3-5 times. Day 11 was used to compare the effect of hormone treatments and 24OHase inhibitor. Statistical analyses were done using Student's t-test.
The cell growth response was determined as described in Experiment I. Briefly, cells were treated with indicated hormone concentrations or combinations of hormone and 24OHase inhibitor (VID400) for 11 days. The growth medium and hormones were changed to a fresh one every third day. After the treatment period, cells were fixed, stained with crystal violet, and the optical density (590 nm) was determined. The cell growth is presented as a percentage of ethanol-treated cells. The values represent the mean of 3 separate experiments ±SD. (*p<0.05, **p<0.001, ***p<0.0001, Student's t-test).
(§7) Cell growth samples were obtained after 11 days treatment.

The subject of a further assay is UT-OC-4 cells. Put plainly: Cell growth assay, crystal violet, 11 days. The note with it: 11 days. In kind it is cell-based, human. The procedure: as §4, §5, §6, §7
For the next assay, the system named is UT-OC-1 cells. The assay is described as follows: Cell growth assay, crystal violet, 11 days. The class given is cell-based, human. Conditions: 11 days. The procedure:
as §4, §5, §6, §7

Assay [8] relates to 24OHase mRNA in OVCAR-3 cells. Put plainly: Quantitative RT-PCR of 24OHase mRNA. The class given is cell-based, human. Conditions: 100 nM. The protocol:
Ethanol was used as a vehicle, and it was also added to the control cells. For RNA extraction, the cells were collected 4, 6 and 24 hr after the treatment with vitamin D compound or vehicle. RNA extractions were done with TRIZOL reagent (GIBCO Invitrogen Corporation, Paisley, UK). The integrity of RNA samples was confirmed on gel electrophoresis. […] The reactions for 24-hydroxylase were performed in the LightCycler instrument (Roche Diagnostics, Basel, Switzerland) from 300 ng total RNA. PBGD (human porphobilinogendeaminase) mRNA was used as an […] control. […] Nucleotides, Tth DNA polymerase (DNA polymerase and reverse transcriptase activity), SYBR Green I and reaction buffer were included in the LightCycler-RNA Master SYBR Green I kit (Roche Diagnostics). […] Cell. […] Detection of fluorescent product was performed at the end of the extension step of each cycle. To verify the specific products, melting curve analysis and gel electrophoresis were done. The data were quantified by the Fit Points method with LightCycler Data Analysis software. […] Hormone treatments and RT-PCR were done twice.

Another assay concerns the target T1, 24-hydroxylase (Homo sapiens, UniProt Q07973).
T1 sequence (Q07973 36-514): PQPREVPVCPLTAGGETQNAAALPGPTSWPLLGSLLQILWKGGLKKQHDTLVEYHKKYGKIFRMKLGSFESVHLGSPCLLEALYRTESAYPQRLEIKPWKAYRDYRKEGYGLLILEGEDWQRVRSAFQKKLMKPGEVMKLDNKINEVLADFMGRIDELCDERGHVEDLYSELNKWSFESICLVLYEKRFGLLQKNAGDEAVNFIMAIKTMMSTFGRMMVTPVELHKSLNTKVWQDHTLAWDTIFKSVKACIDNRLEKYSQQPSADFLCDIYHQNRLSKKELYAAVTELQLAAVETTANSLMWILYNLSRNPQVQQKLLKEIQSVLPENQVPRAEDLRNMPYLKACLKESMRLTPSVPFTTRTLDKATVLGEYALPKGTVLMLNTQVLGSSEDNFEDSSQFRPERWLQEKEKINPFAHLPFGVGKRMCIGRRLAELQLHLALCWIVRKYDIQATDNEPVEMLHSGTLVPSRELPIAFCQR
The note with it: Kahraman et al., J. Med. Chem. 47:6854-6863 (2004); cited from earlier work.

For assay [9], the system named is RARβ mRNA in OVCAR-3 cells. The assay is described as follows: RPA and quantitative RT-PCR of receptor mRNA. In kind it is cell-based, human. The note with it: 10 μM, 24 hour.
From the text: as §1, §2

Assay [10] concerns RARβ mRNA in SK-OV-3 cells. Put plainly: RPA and quantitative RT-PCR of receptor mRNA. In kind it is cell-based, human. The note with it: 10 μM, 24 hour.
From the text: as §1, §2

Assay [11] has as its system VDR mRNA in UT-OC-1 cells. Put plainly: RPA and quantitative RT-PCR of receptor mRNA. The note with it: 10 μM, 24 hour. In kind it is cell-based, human.
From the text: as §1, §2

Assay [12] relates to AIB1 mRNA in OVCAR-3 cells. Put plainly: RPA of nuclear receptor coregulator mRNA. The class given is cell-based, human. The note with it: 10 μM, 24 hour. The source says:
Briefly, ^32P-labelled ([α-^32P]UTP, Amersham Biosciences, Buckinghamshire, UK) RNA-probes were synthesised using in vitro transcription reaction (In vitro transcription reaction kit, Pharmingen, San Diego, Calif.) using two different template sets. […] A coregulator set produces probes for NCoR (360 bp), SMRT (310 bp), pCAF (267 bp), CBP (234 bp), TIF2 (200 bp), AIB1 (179 bp), SRC-1a (145 bp) and −1e (160 bp) and p300 (127 bp); 18S (80 bp) was used as loading control with each probe set.

The next assay concerns SK-OV-3 cells. Put plainly: Cell growth assay, crystal violet, 11 days. Conditions: alone (1 or 10 μM). In kind it is cell-based, human. The protocol:
as §4, §5, §6, §7

Turning to `C=C1/C(=C\C=C2/CCC[C@]3(C)[C@@H]([C@H](C)CCCC(C)(C)O)CC[C@@H]23)C[C@@H](O)C[C@@H]1O` [1,25(OH)2D3, calcitriol], in assay [1] (100 nM), the “increase of RARγ compared to control” value amounted to 78±12%. In [2] (100 nM), the RARα expression is reported as 186±8 % of control. The “up regulation of RARγ compared to control” value in assay [3] (100 nM) was 91±81%. For the same molecule, the “effect on cell growth” value was “inhibited cell growth in a concentration-dependent manner” in assay [4]; “less pronounced” in assay [5]; “less pronounced” in assay [6]; “less pronounced” in [7]; “did not restrain cell growth” in the assay on UT-OC-4 cells (100 nM alone); “did not inhibit the cell growth” with UT-OC-1 cells (100 nM alone). The “stimulated growth compared to the control” value in the assay on OVCAR-3 cells (0.1 nM) amounted to 14%. Further, the “effect on the cell growth” value was “did not have an effect on the cell growth” in the assay on OVCAR-3 cells (1 nM alone, Experiment IV) and “did not have an effect on the cell growth” in the assay on OVCAR-3 cells (1 nM, Experiment I). Further, the inhibition at 0.01 µM in the assay with OVCAR-3 cells (Homo sapiens, OVCAR-3, 264 h, 10 nM alone, Experiment IV, read-out: growth inhibition compared to the control) came to 26%; in the assay on OVCAR-3 cells (Homo sapiens, OVCAR-3, 264 h, 10 nM, Experiment I, read-out: inhibited growth compared to the control) it was 8%. In addition, the inhibition at 0.1 µM in the assay on OVCAR-3 cells (Homo sapiens, OVCAR-3, 264 h, 100 nM, read-out: inhibited growth compared to the control) was 74%. Further, the “induction of 24OHase mRNA expression” value in assay [8] (6 hr treatment) is recorded as 650 fold; in [8] (24 hr treatment) it was 1,100 fold.
Take `C=C1/C(=C\C=C2/CCCC3(C)C2CC[C@@H]3[C@H](C)CCS(=N)(=O)c2ccc(F)cc2)C[C@@H](O)C[C@@H]1O` (stereo partly drawn) [Formula VI]: the “inhibitory potency for 24-hydroxylase” value at 24-hydroxylase was “Only slightly less potent”.
For the molecule `CC1=C(/C=C/C(C)=C/C=C/C(C)=C/C(=O)O)C(C)(C)CCC1` [ATRA, all-trans-retinoic acid], in assay [1] (10 μM), the “increase of RARγ compared to control” value was found to be 119±19%. Moreover, the results for the RARβ expression in assay [9] and in assay [10] were 214±127 % of control and 657±30 % of control, respectively. Further, the VDR expression in assay [11] is 53±11 % of control. The RARα expression in assay [2] (10 μM) is listed as 293±70 % of control. Besides, the “up regulation of RARγ compared to control” value in assay [3] (10 μM) is 83±66%. For the same molecule, the AIB1 expression in assay [12] is recorded as 160 (±10) % of ethanol-treated control. The “effect on cell growth” value is “inhibited UT-OC-4 cell growth” in the assay with UT-OC-4 cells (10 μM alone), “inhibited the growth of SK-OV-3 cells” in the assay on SK-OV-3 cells and “inhibited cell growth with equal magnitude” in the assay with UT-OC-1 cells (10 μM alone).
Turning to `CC1=C(/C=C/C(C)=C\C=C\C(C)=C\C(=O)O)C(C)(C)CCC1` [9-CRA, 9-cis retinoic acid], in assay [1] (10 μM), the “increase of RARγ compared to control” value came out at 119±52%. The values for the RARβ expression in [9] and in [10] were 276±68 % of control and 345±17 % of control, respectively. Also, the VDR expression in assay [11] is reported as 58±25 % of control. Besides, the RARα expression in assay [2] (10 μM) is listed as 195±1 % of control. Further, the “up regulation of RARγ compared to control” value in assay [3] (10 μM) stood at 44±15%. For the same molecule, in assay [12], the AIB1 expression is 171 (±5) % of ethanol-treated control. Moreover, the “effect on cell growth” value in the assay on UT-OC-4 cells (10 μM alone) was “inhibited UT-OC-4 cell growth”; with SK-OV-3 cells, “inhibited the growth of SK-OV-3 cells”; with UT-OC-1 cells (10 μM alone), “inhibited cell growth with equal magnitude”.
As to `C=C1/C(=C\C=C2/CCCC3(C)C2CC[C@@H]3[C@H](C)CCS(=N)(=O)c2ccccc2)C[C@@H](O)C[C@@H]1O` (stereo partly drawn) [Formula V], the “inhibitory potency for 24-hydroxylase” value at 24-hydroxylase was “most potent compound”.
